Data reported in the NIST ThermoML archive (doi:10.1021/je100734t).
Where “and” joins values, the source holds several entries; their conditions need not be identical. Identical values can stand only once. Numbers after ± are expanded uncertainties.

Key:
[1] = xn = mol fraction of the nth substance listed; details: 101 kPa, Liquid; for speed of sound: Pulse-echo method
[2] = 101 kPa, Liquid; for speed of sound: Pulse-echo method

SMILES | speed of sound ([1]; 293.15 K, x1 = 1) | mass density ([1]; 293.15 K, x1 = 1) | speed of sound ([1]; 303.15 K, x1 = 1) | mass density ([1]; 303.15 K, x1 = 1) | speed of sound ([1]; 313.15 K, x1 = 1) | mass density ([1]; 313.15 K, x1 = 1) | mass density ([2]; 293.15 K) | speed of sound ([2]; 293.15 K) | mass density ([2]; 303.15 K) | speed of sound ([2]; 303.15 K) | mass density ([2]; 313.15 K) | speed of sound ([2]; 313.15 K) | also measured
Cc1ccc(C)cc1 [1,4-dimethylbenzene] + CCCCCCCCCCO | 1330 ± 2 m/s | 860.96 ± 0.49 kg/m3 | 1289 ± 2 m/s | 852.25 ± 0.5 kg/m3 | 1249 ± 2 m/s | 843.51 ± 0.51 kg/m3 | – | – | – | – | – | – | –
CCc1ccccc1 [ethylbenzene] | – | – | – | – | – | – | 867.14 ± 0.35 kg/m3 | 1340 ± 2 m/s | 858.37 ± 0.36 kg/m3 | 1298 ± 2 m/s | 849.55 ± 0.37 kg/m3 | 1257 ± 2 m/s | –
Cc1ccc(C)cc1 [1,4-dimethylbenzene] | – | – | – | – | – | – | 860.96 ± 0.49 kg/m3 | 1330 ± 2 m/s | 852.25 ± 0.5 kg/m3 | 1289 ± 2 m/s | 843.51 ± 0.51 kg/m3 | 1249 ± 2 m/s | –
Cc1ccccc1C [1,2-dimethylbenzene] + CCCCCCCCCO | 1369 ± 2 m/s | 879.49 ± 0.35 kg/m3 | 1328 ± 2 m/s | 871.14 ± 0.36 kg/m3 | 1289 ± 2 m/s | 862.59 ± 0.38 kg/m3 | – | – | – | – | – | – | –
CCc1ccccc1 [ethylbenzene] + CCCCCCCCCO | 1340 ± 2 m/s | 867.14 ± 0.35 kg/m3 | 1298 ± 2 m/s | 858.37 ± 0.36 kg/m3 | 1257 ± 2 m/s | 849.55 ± 0.37 kg/m3 | – | – | – | – | – | – | –
Cc1ccccc1C [1,2-dimethylbenzene] | – | – | – | – | – | – | 879.49 ± 0.35 kg/m3 | 1369 ± 2 m/s | 871.14 ± 0.36 kg/m3 | 1328 ± 2 m/s | 862.59 ± 0.38 kg/m3 | 1289 ± 2 m/s | –
CCc1ccccc1 [ethylbenzene] + CCCCCCCCCCO | 1340 ± 2 m/s | 867.14 ± 0.35 kg/m3 | 1298 ± 2 m/s | 858.37 ± 0.36 kg/m3 | 1257 ± 2 m/s | 849.55 ± 0.36 kg/m3 | – | – | – | – | – | – | –
Cc1ccccc1C [1,2-dimethylbenzene] + CCCCCCCCCCO | 1369 ± 2 m/s | 879.49 ± 0.35 kg/m3 | 1328 ± 2 m/s | 871.14 ± 0.36 kg/m3 | 1289 ± 2 m/s | 862.59 ± 0.38 kg/m3 | – | – | – | – | – | – | –
Cc1cccc(C)c1 [1,3-dimethylbenzene] + CCCCCCCCCO | 1341 ± 2 m/s | 864.18 ± 0.49 kg/m3 | 1300 ± 2 m/s | 855.56 ± 0.5 kg/m3 | 1259 ± 2 m/s | 846.9 ± 0.51 kg/m3 | – | – | – | – | – | – | –
CCCCCCCCCCO [decan-1-ol] + Cc1cccc(C)c1 | – | – | – | – | – | – | – | – | – | – | – | – | speed of sound ([1]; 293.15 K, x2 = 0): 1396 ± 2 m/s; mass density ([1]; 293.15 K, x2 = 0): 829.98 ± 0.42 kg/m3; speed of sound ([1]; 303.15 K, x2 = 0): 1362 ± 2 m/s; mass density ([1]; 303.15 K, x2 = 0): 823.1 ± 0.44 kg/m3; speed of sound ([1]; 313.15 K, x2 = 0): 1329 ± 2 m/s; mass density ([1]; 313.15 K, x2 = 0): 816.27 ± 0.45 kg/m3
Cc1cccc(C)c1 [1,3-dimethylbenzene] | – | – | – | – | – | – | 864.18 ± 0.49 kg/m3 | 1341 ± 2 m/s and 1340 ± 2 m/s | 855.56 ± 0.5 kg/m3 | 1300 ± 2 m/s | 846.9 ± 0.51 kg/m3 | 1259 ± 2 m/s | –
Cc1ccc(C)cc1 [1,4-dimethylbenzene] + CCCCCCCCCO | 1330 ± 2 m/s | 860.96 ± 0.49 kg/m3 | 1289 ± 2 m/s | 852.25 ± 0.5 kg/m3 | 1249 ± 2 m/s | 843.51 ± 0.51 kg/m3 | – | – | – | – | – | – | –
CCCCCCCCCCO [decan-1-ol] | – | – | – | – | – | – | 829.98 ± 0.42 kg/m3 | 1396 ± 2 m/s | 823.1 ± 0.44 kg/m3 | 1362 ± 2 m/s | 816.27 ± 0.45 kg/m3 | 1329 ± 2 m/s | –
CCCCCCCCCO [nonan-1-ol] | – | – | – | – | – | – | 827.7 ± 0.43 kg/m3 | 1381 ± 2 m/s | 820.82 ± 0.44 kg/m3 | 1347 ± 2 m/s | 813.88 ± 0.45 kg/m3 | 1314 ± 2 m/s | –
